The results in this text go back to the SangsterLogP compilation.

One may read the logP as the decadic logarithm of the partition coefficient of the neutral form, usually between octanol and water. A low value points to lower lipophilicity.

Molecule `CCCCCc1cc(OCCCCN)c2c(c1)OC(C)(C)C1CC=C(C)CC21` (centres undefined) yielded a logP of 8.38.
With `CCCCCCC(C)(C)c1ccc(C2CC(O)CCC2C)c(O)c1` (centres undefined), the logP came to 7.49.
`CCCCCCC(C)(C)c1ccc(C2CCCC(O)C2)c(O)c1` (centres undefined) registered a logP of 6.68.
With `CCCCCCC(C)(C)c1cc(O)c2c(c1)OC(C)(C)C1CCC(C=O)=CC21` (centres undefined) the figure was 8.03; with `CCCCCC(C)C(C)c1cc(O)c2c(c1)OC(C)(C)C1=C2CC(C)CC1` (centres undefined), 8.3.
Consider `CCCCC(C)(C)c1ccc(C2CCCC(O)C2)c(O)c1` (centres undefined), for which the logP came to 5.43.
`CCCCCCC(C)(C)c1ccc(C2CC(O)CCC2CCCCO)c(O)c1` (centres undefined) registered a logP of 6.68.
In turn, `CCCCCCCC(C)(C)c1ccc([C@H]2CCC[C@@H](O)C2)c(O)c1` registered a logP of 7.18.
Take `CC1=CCC2C(C1)c1c(O)cc(NS(C)(=O)=O)cc1OC2(C)C` (centres undefined): the logP is 3.12.
Molecule `CCCCCc1cc(OCCCCCN2CC(=O)c3ccccc3C2=O)c2c(c1)OC(C)(C)C1CC=C(C)CC21` (centres undefined) gave a logP of 9.07.
As for `CCCCCCC(C)(C)c1cc(O)c2c(c1)OC(C)(C)C1CCC(CO)=CC21` (centres undefined), the logP amounted to 7.83.
For `CCCCCc1cc(O)c2c(c1)OC(C)(C)c1ccc(C)cc1-2`, the logP came to 6.23.
As for `CCCCCc1cc(O)c2c(c1)OC(C)(C)C1CC=C(C)CC21` (centres undefined), the logP came out at 7.41.
With `CC(=O)Oc1cc(OC(C)CCCc2ccccc2)cc2c1C1CC(O)CCC1C(C)N2C` (centres undefined) the figure was 5.72; with `CCCCCc1cc(OCc2ccc(-c3ccccc3)cc2)c2c(c1)OC(C)(C)C1CC=C(C)CC21` (centres undefined), 10.9.
With `C=C1CC[C@@H]2[C@@H](C1)c1c(OCc3ccc(-c4ccccc4)cc3)cc(CCCCC)cc1OC2(C)C` the figure was 11.3; with `CC(=O)Oc1cc(O[C@H](C)CCCc2ccccc2)cc2c1[C@@H]1C[C@H](O)CC[C@H]1[C@H](C)N2`, 5.7; with `CCCCCCC(C)(C)c1ccc([C@@H]2C[C@H](O)C[C@@H]3CC[C@H](CO)C[C@H]32)c(O)c1`, 6.13.
The molecule `CCCCCCCCC(C)(C)c1ccc([C@H]2CCC[C@@H](O)C2)c(O)c1` registered a logP of 8.16.
In turn, `CCC(C)(C)c1ccc(C2CCCC(O)C2)c(O)c1` (centres undefined) had a logP of 4.32.
In turn, `CCCCCc1cc(O)c2c(c1)OC(C)(C)[C@@H]1CCC(CO)=C[C@@H]21` displayed a logP of 5.33.
With `C=C1CCC2C(C1)c1c(OC)cc(CCC)cc1OC2(C)C` (centres undefined) the figure was 6.26; with `CCCCCCC(C)(C)c1cc(O)c2c(c1)OC(C)(C)C1CC=C(C)CC21` (centres undefined), 9.96.
As for `C=C(C)[C@@H]1CCC(C)=C[C@H]1c1c(O)cc(CCCCC)cc1O`, the logP stood at 5.79.
The same measure for `CCCCCCC(C)(C)c1ccc(C2CC(O)CCC2CCCO)c(O)c1` (centres undefined): 6.13.
Molecule `CCCCCC(C)(C)c1ccc([C@H]2CCC[C@@H](O)C2)c(O)c1` displayed a logP of 5.97.
In the case of `CCCCCc1cc(OC)c2c(c1)OC(C)(C)[C@@H]1CC=C(C)C[C@@H]21`, the logP is 8.06.
Consider `C=C1CCC2C(C1)c1c(OC)cc(CCCCC)cc1OC2(C)C` (centres undefined), for which the lipophilicity (logP) came out at 7.62.
With `CCCC(C)(C)c1ccc(C2CCCC(O)C2)c(O)c1` (centres undefined) the figure was 4.82; with `CCCCCCC(C)(C)c1cc(O)c2c(c1)OC(C)(C)C1CC=C(CO)CC21` (centres undefined), 7.44.
`C=C1C[C@H]2c3c(O)cc(CCCCC)cc3OC(C)(C)[C@@H]2C[C@H]1O` displayed a log partition coefficient (logP) of 4.24.
`CC(C)(C)c1ccc(C2CCCC(O)C2)c(O)c1` (centres undefined) came in with a logP of 4.05.
Molecule `CCCCCCCCCCC(C)(C)c1ccc(C2CCCC(O)C2)c(O)c1` (centres undefined) came in with a logP of 8.42.
For `CCCCCc1cc(O)c2c(c1)OC(C)(C)[C@@H]1CC=C(C(=O)O)C[C@@H]21`, the logP was 3.51.
